Calls of active or inactive are those of the source. No cut-off for these calls is given here.
How the values were obtained:
Type in all cases: cell-based
[1] = molecular target: Protein transport protein Sec31A (Mus musculus) (UniProt Q3UPL0); assay: Inhibition of Sec31a in mouse C2C12 cells assessed as reduction in phospho-sites occupancy at 4 uM after 5 hrs by SILAC based LC-MS/MS analysis relative to control
[2] = molecular target: Centrosomal protein of 170 kDa (Mus musculus) (UniProt Q6A065); assay: Inhibition of Cep170 in mouse C2C12 cells assessed as reduction in phospho-sites occupancy at 4 uM after 5 hrs by SILAC based LC-MS/MS analysis relative to control
[3] = molecular target: T1, Casein kinase 2 (Mus musculus) (UniProt Q60737+P67871+O54833+Q8CH19); assay: Inhibition of CK2 in mouse C2C12 cells assessed as reduction in CDC37 phosphorylation at S13 residues at 1 to 4 uM by Western blot analysis; conditions: dose 1-4 µM
Kinectin (Mus musculus) = Kinectin (Mus musculus) (UniProt Q61595); assay: Inhibition of Ktn1 in mouse C2C12 cells assessed as reduction in phospho-sites occupancy at 4 uM after 5 hrs by SILAC based LC-MS/MS analysis relative to control
[4] = molecular target: Cyclin-dependent kinase 4 (Mus musculus) (UniProt P30285); assay: Inhibition of Cdk4 in mouse C2C12 cells assessed as reduction in phospho-sites occupancy at 4 uM after 5 hrs by SILAC based LC-MS/MS analysis relative to control
[5] = molecular target: WASH complex subunit 2 (Mus musculus) (UniProt Q6PGL7); assay: Inhibition of Washc2 in mouse C2C12 cells assessed as reduction in phospho-sites occupancy at 4 uM after 5 hrs by SILAC based LC-MS/MS analysis relative to control
[6] = molecular target: Rho GTPase-activating protein 35 (Mus musculus) (UniProt Q91YM2); assay: Inhibition of Arhgap35 in mouse C2C12 cells assessed as reduction in phospho-sites occupancy at 4 uM after 5 hrs by SILAC based LC-MS/MS analysis relative to control
[7] = molecular target: La-related protein 1 (Mus musculus) (UniProt Q6ZQ58); assay: Inhibition of Larp1 in mouse C2C12 cells assessed as reduction in phospho-sites occupancy at 4 uM after 5 hrs by SILAC based LC-MS/MS analysis relative to control
[8] = molecular target: T1, Casein kinase 2 (Mus musculus); assay: Inhibition of CK2 in mouse C2C12 cells assessed as reduction in CK2 substrates phosphorylation at 1 to 4 uM by Western blot analysis; conditions: dose 1-4 µM
[9] = molecular target: Pleckstrin homology-like domain family B member 1 (Mus musculus) (UniProt Q6PDH0); assay: Inhibition of Phldb1 in mouse C2C12 cells assessed as reduction in phospho-sites occupancy at 4 uM after 5 hrs by SILAC based LC-MS/MS analysis relative to control
[10] = molecular target: E3 ubiquitin-protein ligase NEDD4 (Mus musculus) (UniProt P46935); assay: Inhibition of Nedd4 in mouse C2C12 cells assessed as reduction in phospho-sites occupancy at 4 uM after 5 hrs by SILAC based LC-MS/MS analysis relative to control
[11] = molecular target: EH domain-containing protein 2 (Mus musculus) (UniProt Q8BH64); assay: Inhibition of Ehd2 in mouse C2C12 cells assessed as reduction in phospho-sites occupancy at 4 uM after 5 hrs by SILAC based LC-MS/MS analysis relative to control
[12] = molecular target: DNA replication licensing factor MCM2 (Mus musculus) (UniProt P97310); assay: Inhibition of Mcm2 in mouse C2C12 cells assessed as reduction in phospho-sites occupancy at 4 uM after 5 hrs by SILAC based LC-MS/MS analysis relative to control
[13] = molecular target: 1-phosphatidylinositol 4,5-bisphosphate phosphodiesterase delta-3 (Mus musculus) (UniProt Q8K2J0); assay: Inhibition of Plcd3 in mouse C2C12 cells assessed as reduction in phospho-sites occupancy at 4 uM after 5 hrs by SILAC based LC-MS/MS analysis relative to control
[14] = molecular target: Desmoyokin (Mus musculus) (UniProt Q61484); assay: Inhibition of AHNAK in mouse C2C12 cells assessed as reduction in phospho-sites occupancy at 4 uM after 5 hrs by SILAC based LC-MS/MS analysis relative to control
[15] = molecular target: Fermitin family homolog 2 (Mus musculus) (UniProt Q8CIB5); assay: Inhibition of Fermt2 in mouse C2C12 cells assessed as reduction in phospho-sites occupancy at 4 uM after 5 hrs by SILAC based LC-MS/MS analysis relative to control
[16] = molecular target: Serine/arginine repetitive matrix protein 1 (Mus musculus) (UniProt Q52KI8); assay: Inhibition of Srrm1 in mouse C2C12 cells assessed as reduction in phospho-sites occupancy at 4 uM after 5 hrs by SILAC based LC-MS/MS analysis relative to control
[17] = molecular target: Nucleolar RNA helicase 2 (Mus musculus) (UniProt Q9JIK5); assay: Inhibition of Ddx21 in mouse C2C12 cells assessed as reduction in phospho-sites occupancy at 4 uM after 5 hrs by SILAC based LC-MS/MS analysis relative to control
[18] = molecular target: Transcriptional regulator ATRX (Mus musculus) (UniProt Q61687); assay: Inhibition of ATRX in mouse C2C12 cells assessed as reduction in phospho-sites occupancy at 4 uM after 5 hrs by SILAC based LC-MS/MS analysis relative to control
[19] = molecular target: tRNA (guanine(26)-N(2))-dimethyltransferase (Mus musculus) (UniProt Q3TX08); assay: Inhibition of Trmt1 in mouse C2C12 cells assessed as reduction in phospho-sites occupancy at 4 uM after 5 hrs by SILAC based LC-MS/MS analysis relative to control
[20] = molecular target: Dihydropyrimidinase-related protein 3 (Mus musculus) (UniProt Q62188); assay: Inhibition of Dihydropyrimidinase-related protein 3 in mouse C2C12 cells assessed as reduction in phospho-sites occupancy at 4 uM after 5 hrs by SILAC based LC-MS/MS analysis relative to control
[21] = molecular target: Lamina-associated polypeptide 2, isoforms beta/delta/epsilon/gamma (Mus musculus) (UniProt Q61029); assay: Inhibition of LAP2B epsilon in mouse C2C12 cells assessed as reduction in phospho-sites occupancy at 4 uM after 5 hrs by SILAC based LC-MS/MS analysis relative to control
[22] = molecular target: T1, Casein kinase 2 (Mus musculus); assay: Inhibition of CK2 in mouse C2C12 cells assessed as reduction in Akt phosphorylation at S129 residues at 1 to 4 uM by Western blot analysis; conditions: dose 1-4 µM
[23] = molecular target: Autophagy-related protein 9A (Mus musculus) (UniProt Q68FE2); assay: Inhibition of Atg9a in mouse C2C12 cells assessed as reduction in phospho-sites occupancy at 4 uM after 5 hrs by SILAC based LC-MS/MS analysis relative to control

fold change (FC) [1]: 2.28
fold change (FC) [2]: 1.56
inhibition [3]: Active
fold change (FC) (Kinectin (Mus musculus)): 1.54
fold change (FC) [4]: 2.6
fold change (FC) [5]: 3.41
fold change (FC) [6]: 1.95
fold change (FC) [7]: 1.84
inhibition [8]: Active
fold change (FC) [9]: 2.12
fold change (FC) [10]: 3.66
fold change (FC) [11]: 1.65
fold change (FC) [12]: 1.83
fold change (FC) [13]: 2.53
fold change (FC) [14]: 1.54
fold change (FC) [15]: 2.53
fold change (FC) [16]: 1.7
fold change (FC) [17]: 1.85
fold change (FC) [18]: 2.22
fold change (FC) [19]: 1.54
fold change (FC) [20]: 2.57
fold change (FC) [21]: 1.82
inhibition [22]: Active
fold change (FC) [23]: 1.5
Compound: O=C(O)c1ccc2c(c1)nc(Nc1cccc(Cl)c1)c1ccncc12

Source: ChEMBL document CHEMBL4813950, “Comparing the efficacy and selectivity of Ck2 inhibitors. A phosphoproteomics approach” (Eur J Med Chem, 2021)
